{
  "source": "patent US20090291857A1",
  "about": "“METHODS TO IDENTIFY INHIBITORS OF THE UNFOLDED PROTEIN RESPONSE” (THE BOARD OF TRUSTEES OF THE LELAND STANFORD JUNIOR …, priority 2006, published 2009)",
  "key": {"[1]": {"test_system": "ATF6", "assay": "ATF6 cleavage in hypoxic HT1080 cells (Western blot)", "format": "cell-based, human", "conditions": "2.5 μM, hypoxia", "protocol": "A. Effect of irestatin 9389 on PERK and ATF6 pathways. HT1080 cells were treated with vehicle alone (lanes 1-4) or 2.5 μM irestatin 9389 (lanes 5-8) and cultured under aerobic conditions for 18 hours (N) or shifted to hypoxia for the indicated times. Protein lysates were analyzed by Western blot analysis using antisera specific for ATF6 (top), CHOP/GADD153 (middle) or actin (bottom). Arrow indicates the cleaved, transcriptionally active form of ATF6. B. Cleavage of caspase-3 in irestatin-treated cells under hypoxia. HT1080 cells were cultured in normoxia (N) or under hypoxia for 36 hours (H 36) in absence or presence of irestatin 9389 (2.5 μM). Arrows indicate proteolytically cleaved caspase-3. C. Colony formation assay. HT1080 cells were treated as in B under normoxia (N) or hypoxia for 48 hours (H 48). Cells were harvested, counted, and allowed to grow under normal culture conditions for 11-12 days. Colonies were visualized with crystal violet staining. D. Quantification of clonogenic survival assay. Values represent the mean+/−SEM from at least 4 independent experiments. E. TUNEL staining of cells treated as in C. F. Quantification of TUNEL-positive cells. Values represent the mean+/−SEM from at least 3 experiments. […] Cells were harvested at the indicated times and counted by hemocytometer. Values represent the mean calculated from triplicate experiments +/−SEM. […]"}, "[2]": {"test_system": "HT1080 tet-off Flag-XBP-1s cells", "assay": "Colony formation of HT1080 tet-off Flag-XBP-1s cells under hypoxia", "format": "cell-based, human", "conditions": "2.5 μM, no dox, hypoxia 48 hours"}},
  "data": [
    {"smiles": "Cc1csc(NC(=O)CSc2nc3c(c(C(F)(F)F)c2C#N)CCC3)n1", "note": "[Compound 9389]", "values": [
      {"measurement": "proteolytic cleavage of ATF6 into active 50 kDa form", "setting": "[1]", "value": "significantly increased"},
      {"measurement": "survival of hypoxic cells expressing Flag-XBP-1s", "setting": "[2]", "value": "minimal effect"}
    ]}
  ]
}
